MIC and IC50 data for four compounds are collected here from patent US20210246115A1 (Bioimics AB, priority 2017, published 2021).

One assay concerns M. phlei ATCC 11758. As to the kind of experiment: MIC, M. phlei ATCC 11758. The format is cell-based. The following applies: Mycolicibacterium phlei, ATCC11758; Table XIV A. Gram-positive bacteria.
In a further assay the test system is K. pneumoniae ATCC 43816. Description: MIC, K. pneumoniae ATCC 43816. Particulars: Klebsiella pneumoniae, ATCC43816; Table XIV B. Gram-negative bacteria. The format is cell-based.
The subject of assay [1] is Escherichia coli (ATCC25922). As to the kind of experiment: MIC, broth microdilution (CLSI), Escherichia coli. Particulars: Escherichia coli.
The test system of the next assay is E. faecium ATCC 700221. As to the kind of experiment: MIC, E. faecium ATCC 700221. Type of assay: cell-based. The following applies: Enterococcus faecium.
In assay [2] the test system is S. aureus MRSA ATCC 33591. Description: MIC, S. aureus MRSA ATCC 33591. Type of assay: cell-based. Particulars: Staphylococcus aureus, read-out: S. aureus MRSA ATCC 33591 MIC.
The subject of assay [3] is P. aeruginosa NTUH974 (MDR). As to the kind of experiment: MIC, P. aeruginosa NTUH974 (MDR). The format is cell-based. The following applies: Pseudomonas aeruginosa, read-out: P. aeruginosa NTUH974 (MDR) MIC.
The next assay concerns A. baumannii ATCC 17978. As to the kind of experiment: MIC, A. baumannii ATCC 17978. Type of assay: cell-based. The following applies: Acinetobacter baumannii, ATCC17978; Table XIV B. Gram-negative bacteria.
In assay [4] the test system is Pseudomonas aeruginosa (ATCC27853). Description: MIC, broth microdilution (CLSI), Pseudomonas aeruginosa. The format is cell-based.
Assay [5] has as its system Enterococcus faecalis (ATCC29212). Description: MIC, broth microdilution (CLSI), Enterococcus faecalis. The format is cell-based.
Assay [6] relates to N. gonorrhoeae ATCC 700825. As to the kind of experiment: MIC, N. gonorrhoeae ATCC 700825. The format is cell-based. Particulars: Neisseria gonorrhoeae, ATCC700825; Table XIV B. Gram-negative bacteria.
In assay [7] the test system is E. coli JW5503 (efflux defective). As to the kind of experiment: MIC, E. coli JW5503 (efflux defective). Type of assay: cell-based. The following applies: Escherichia coli, read-out: E. coli JW5503 (efflux defective) MIC.
For assay [8], the system named is S. aureus USA300 MRSA BAA-1717. As to the kind of experiment: MIC, S. aureus USA300 MRSA BAA-1717. Type of assay: cell-based. The following applies: Staphylococcus aureus, read-out: S. aureus USA300 MRSA BAA-1717 MIC.
The test system of assay [9] is E. coli RNase P RNA, M1 RNA. As to the kind of experiment: Inhibition of bacterial RNase P activity, IC50 determination (cleavage of pATSerUG by M1 RNA). The following applies: NI: No inhibition. Type of assay: biochemical.
The next assay concerns H. pylori ATCC 43504. As to the kind of experiment: MIC, H. pylori ATCC 43504. Type of assay: cell-based. The following applies: Helicobacter pylori, ATCC43504; Table XIV B. Gram-negative bacteria.
The subject of a further assay is H. influenzae ATCC 49247. Description: MIC, H. influenzae ATCC 49247. Particulars: Haemophilus influenzae, ATCC49247; Table XIV B. Gram-negative bacteria. The format is cell-based.
In the next assay the test system is S. pneumoniae ATCC 49619. Description: MIC, S. pneumoniae ATCC 49619. The format is cell-based. Particulars: Streptococcus pneumoniae, ATCC49619; Table XIV A. Gram-positive bacteria.
In a further assay the test system is M. fortuitum ATCC 110. As to the kind of experiment: MIC, M. fortuitum ATCC 110. Type of assay: cell-based. The following applies: Mycolicibacterium fortuitum, ATCC110; Table XIV A. Gram-positive bacteria.
Assay [10] deals with Staphylococcus aureus subsp. aureus (ATCC29213). Description: MIC, broth microdilution (CLSI), Staphylococcus aureus ATCC29213. The format is cell-based. The following applies: Staphylococcus aureus.
Setting [11] is: ATCC25922, read-out: E. coli ATCC 25922 MIC, Table XIII.
Setting [12] is: ATCC25922, read-out: E. coli ATCC 25922 MIC, Table XIV B. Gram-negative bacteria.
The mark [13] stands for this setting: ATCC700221, Table XIV A. Gram-positive bacteria, read-out: E. faecium ATCC 700221 MIC.
[14] abbreviates: Table XIV A. Gram-positive bacteria.
[15] abbreviates: Table XIV B. Gram-negative bacteria.
The mark [16] stands for this setting: ATCC27853, Table XIV B. Gram-negative bacteria, read-out: P. aeruginosa ATCC 27853 MIC.
Setting [17] is: ATCC29212, Table XIV A. Gram-positive bacteria, read-out: E. faecalis ATCC 29212 MIC.
Where [18] appears, read: ATCC29213, Table XIII, read-out: S. aureus ATCC 29213 MIC.
Setting [19] is: ATCC29213, Table XIV A. Gram-positive bacteria, read-out: S. aureus ATCC 29213 MIC.

Values after ≈ are worked out from the molar mass of the structure shown. Where a name gives a salt, the structure may show the parent alone. Read-outs that look alike come from different tables or passages of the source.

As for `Cl.Cl.NCCCNCCC(c1cn(C2CCCCC2)c2ccccc12)C1CCCCC1` (centres unmarked) [Compound 371, N1-(3-cyclohexyl-3-(1-cyclohexyl-1H-indol-3-yl)propyl)propane-1,3-diamine hydrochloride], the MIC in the assay on M. phlei ATCC 11758 stood at 4 µg/mL; against K. pneumoniae ATCC 43816, 4 µg/mL; in assay [1] (setting [11]) it was 2 µg/mL; in assay [1] (setting [12]) it was 2 µg/mL; with E. faecium ATCC 700221 (setting [13]), 2 µg/mL; in assay [2] (setting [14]), 4 µg/mL. The MIC was determined as 8 µg/mL in assay [3] (setting [15]); 4 µg/mL against A. baumannii ATCC 17978; 8 µg/mL in assay [4] (setting [16]); 4 µg/mL in [5] (setting [17]); 2 µg/mL in assay [6]; 2 µg/mL in assay [7]. Besides, the MIC in assay [8] (setting [14]) was determined as 4 µg/mL; in the assay with H. pylori ATCC 43504, 16 µg/mL; against H. influenzae ATCC 49247, 4 µg/mL; in the assay on S. pneumoniae ATCC 49619, 8 µg/mL; in the assay on M. fortuitum ATCC 110 it was 4 µg/mL; in assay [10] (setting [18]) it was 4 µg/mL. In assay [10] (setting [19]), the MIC was 4 µg/mL. Further, the 50% inhibitory concentration (IC50) in [9] (hydrochloride) worked out at 9 µM.
With `N#Cc1ccc2c(c1)c(C(CCNCCCN)c1cccc(OC(F)(F)F)c1)cn2C1CCCCC1` (centres unmarked) [Compound 372, 3-(3-((3-aminopropyl)amino)-1-(3-(trifluoromethoxy)phenyl)propyl)-1-cyclohexyl-1H-indole-5-carbonitrile, dihydrochloride salt], the MIC in the assay on M. phlei ATCC 11758 is 4 µg/mL; against K. pneumoniae ATCC 43816, 2 µg/mL; in [1] (setting [11]), 4 µg/mL; in assay [1] (setting [12]), 2 µg/mL; in the assay with E. faecium ATCC 700221 (ATCC700221, read-out: E. faecium ATCC 700221 MIC) it was 2 µg/mL; in [2], 4 µg/mL. The MIC in assay [3] came to 8 µg/mL; in the assay on A. baumannii ATCC 17978 it was 4 µg/mL; in [4] (ATCC27853, read-out: P. aeruginosa ATCC 27853 MIC), 8 µg/mL; in assay [5] (ATCC29212, read-out: E. faecalis ATCC 29212 MIC) it was 2 µg/mL; in [6], 4 µg/mL; in assay [7], 2 µg/mL. Besides, the MIC in [8] was 2 µg/mL; in the assay on H. pylori ATCC 43504, 16 µg/mL; against H. influenzae ATCC 49247, 4 µg/mL; with S. pneumoniae ATCC 49619, 8 µg/mL; with M. fortuitum ATCC 110, 4 µg/mL; in assay [10] (ATCC29213, read-out: S. aureus ATCC 29213 MIC, Table XIII), 4 µg/mL. For the same compound, the MIC in assay [10] (ATCC29213, read-out: S. aureus ATCC 29213 MIC, Table XIV A. Gram-positive bacteria) was determined as 2 µg/mL. In assay [9], this compound showed an IC50 of 9.1 µM.
In the case of `Cc1cccc(-c2ccc3c(c2)c(C2CCCC(NCCCN)C2)cn3C2CCCCC2)c1` (centres unmarked) [Compound 381, N1-(3-(1-cyclohexyl-5-(m-tolyl)-1H-indol-3-yl)cyclohexyl)propane-1,3-diamine], the MIC against M. phlei ATCC 11758 was 4 µg/mL (≈ 9.02 µM); against K. pneumoniae ATCC 43816 it was 4 µg/mL (≈ 9.02 µM); in [1] (setting [11]), 4 µg/mL (≈ 9.02 µM); in assay [1] (setting [12]), 2 µg/mL (≈ 4.51 µM); in the assay on E. faecium ATCC 700221 (setting [13]) it was 1 µg/mL (≈ 2.25 µM); in assay [2] (setting [14]) it was 2 µg/mL (≈ 4.51 µM). Also, the MIC is 8 µg/mL (≈ 18 µM) in assay [3] (setting [15]); 4 µg/mL (≈ 9.02 µM) in the assay on A. baumannii ATCC 17978; 4 µg/mL (≈ 9.02 µM) in [4] (setting [16]); 2 µg/mL (≈ 4.51 µM) in assay [5] (setting [17]); 2 µg/mL (≈ 4.51 µM) in assay [6]; 2 µg/mL (≈ 4.51 µM) in assay [7]. The MIC worked out at 2 µg/mL (≈ 4.51 µM) in [8] (setting [14]); 8 µg/mL (≈ 18 µM) in the assay with H. pylori ATCC 43504; 2 µg/mL (≈ 4.51 µM) in the assay with H. influenzae ATCC 49247; 8 µg/mL (≈ 18 µM) in the assay on S. pneumoniae ATCC 49619; 4 µg/mL (≈ 9.02 µM) against M. fortuitum ATCC 110; 2 µg/mL (≈ 4.51 µM) in assay [10] (setting [18]). Besides, in [10] (setting [19]), the MIC came to 2 µg/mL (≈ 4.51 µM). The compound also gave an IC50 in assay [9] of 11 µM.
As for `Cc1cccc(-c2ccc3c(c2)c(CCCNCC(O)CN)cn3C2CCCCC2)c1` (centres unmarked) [Compound 385, 1-amino-3-((3-(1-cyclohexyl-5-(m-tolyl)-1H-indol-3-yl)propyl)amino) propan-2-ol], the MIC against M. phlei ATCC 11758 was determined as 4 µg/mL (≈ 9.53 µM); with K. pneumoniae ATCC 43816 it was 4 µg/mL (≈ 9.53 µM); in assay [1] (setting [11]), 4 µg/mL (≈ 9.53 µM); in assay [1] (setting [12]) it was 4 µg/mL (≈ 9.53 µM); in the assay with E. faecium ATCC 700221 (setting [13]) it was 2 µg/mL (≈ 4.77 µM); in [2] (setting [14]), 2 µg/mL (≈ 4.77 µM). Besides, the MIC is 4 µg/mL (≈ 9.53 µM) in assay [3] (setting [15]); 4 µg/mL (≈ 9.53 µM) in the assay on A. baumannii ATCC 17978; 4 µg/mL (≈ 9.53 µM) in [4] (setting [16]); 2 µg/mL (≈ 4.77 µM) in [5] (setting [17]); 2 µg/mL (≈ 4.77 µM) in assay [6]; 2 µg/mL (≈ 4.77 µM) in [7]. Moreover, the MIC turned out to be 2 µg/mL (≈ 4.77 µM) in assay [8] (setting [14]); 8 µg/mL (≈ 19.1 µM) against H. pylori ATCC 43504; 2 µg/mL (≈ 4.77 µM) in the assay with H. influenzae ATCC 49247; 8 µg/mL (≈ 19.1 µM) with S. pneumoniae ATCC 49619; 2 µg/mL (≈ 4.77 µM) in the assay on M. fortuitum ATCC 110; 4 µg/mL (≈ 9.53 µM) in assay [10] (setting [18]). Also, the MIC in assay [10] (setting [19]) is 2 µg/mL (≈ 4.77 µM). In addition, the midpoint of inhibition in assay [9], the IC50, lay at 13 µM.
